Experimental data taken from patent publication US20050101595A1, “N-containing cycloalkyl-substituted amino-thiazole derivatives and pharmaceutical compositions for inhibiting cell proliferation and methods for their use” (PFIZER INC., priority 2003, published 2005).

Assays:
HCT-116 cell line = assay: Inhibition of cell growth, tetrazolium salt (MTT) assay; type: cell-based; settings: Homo sapiens, HCT-116, HCT-116 cells; MTT; compound at 0.175 uM
Procedure, shortened: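 McCoy's 5A cultures; 4 h pre-incubation; compound dilutions in 0.5% v/v DMSO; 3–5 d, 37° C, 5% CO2; MTT 0.2 mg/mL final, 4 h; formazan dissolved in DMSO, A540; vs 0.5% DMSO vehicle.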

CDK2/Cyclin A = CDK2/Cyclin A (Homo sapiens, UniProt P24941); assay: Inhibition of CDK2/Cyclin A Retinoblastoma Kinase Activity; type: biochemical; settings: read-out: % inhibition of CDK2 (@ 0.05 μM), compound at 0.05 μM
Procedure, shortened: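 CDK2 (10 or 19 nM), insect-cell expressed, gel-filtration purified with truncated cyclin A; Rb fragment substrate; 25 μM ATP; 10 mM HEPES pH 7.4, 10 mM MgCl2; 30° C, 60 or 75 min; EDTA stop; phosphocellulose/nitrocellulose capture, phosphorimager. % inhibition vs DMSO control, no-enzyme background subtracted.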

| inhibition at 0.05 µM (CDK2/Cyclin A) | Structure (SMILES) | inhibition at 0.175 µM (HCT-116 cell line) |
| --- | --- | --- |
| 78% | COCCN(C)CCCS(=O)(=O)N1CCC(Nc2nc(N)c(C(=O)c3c(F)cccc3F)s2)CC1 [Example V107] | 36% |
| 79% | CCN(CCCCO)CCCS(=O)(=O)N1CCC(Nc2nc(N)c(C(=O)c3c(F)cccc3F)s2)CC1 [Example V108] | 2% |
| 85% | Cc1ccnc(NCCCS(=O)(=O)N2CCC(Nc3nc(N)c(C(=O)c4c(F)cccc4F)s3)CC2)c1 [Example V109] | 0% |
| 67% | Nc1nc(NC2CCN(S(=O)(=O)CCCNc3ccc4ccccc4n3)CC2)sc1C(=O)c1c(F)cccc1F [Example V110] | 2% |
| 86% | CCc1ccnc(NCCCS(=O)(=O)N2CCC(Nc3nc(N)c(C(=O)c4c(F)cccc4F)s3)CC2)c1 [Example V111] | 5% |
| 88% | CCc1ccc(C)cc1NCCCS(=O)(=O)N1CCC(Nc2nc(N)c(C(=O)c3c(F)cccc3F)s2)CC1 [Example V112] | 57% |
| 79% | CCc1cccc(NCCCS(=O)(=O)N2CCC(Nc3nc(N)c(C(=O)c4c(F)cccc4F)s3)CC2)n1 [Example V113] | 19% |
| 86% | Nc1nc(NC2CCN(S(=O)(=O)CCCNCCc3cccnc3)CC2)sc1C(=O)c1c(F)cccc1F [Example V114] | 17% |
| 75% | CC(C)N1CCN(CCCS(=O)(=O)N2CCC(Nc3nc(N)c(C(=O)c4c(F)cccc4F)s3)CC2)CC1 [Example V115] | 9% |
| 77% | Nc1nc(NC2CCN(S(=O)(=O)CCCNc3ccon3)CC2)sc1C(=O)c1c(F)cccc1F [Example V116] | 0% |
| 80% | CC(C)(C)c1cc(NCCCS(=O)(=O)N2CCC(Nc3nc(N)c(C(=O)c4c(F)cccc4F)s3)CC2)no1 [Example V117] | 0% |
| 90% | Nc1nc(NC2CCN(S(=O)(=O)CCCNCC3CCCCC3)CC2)sc1C(=O)c1c(F)cccc1F [Example V118] | 54% |
| 75% | CCCCN(CC#N)CCCS(=O)(=O)N1CCC(Nc2nc(N)c(C(=O)c3c(F)cccc3F)s2)CC1 [Example V119] | 0% |
| 89% | CCCCC(CO)NCCCS(=O)(=O)N1CCC(Nc2nc(N)c(C(=O)c3c(F)cccc3F)s2)CC1 (stereo not shown) [Example V120] | 6% |
| 77% | C[C@H](NCCCS(=O)(=O)N1CCC(Nc2nc(N)c(C(=O)c3c(F)cccc3F)s2)CC1)C(N)=O [Example V121] | 4% |
| 79% | NC(=O)CCNCCCS(=O)(=O)N1CCC(Nc2nc(N)c(C(=O)c3c(F)cccc3F)s2)CC1 [Example V122] | 32% |
| 76% | Cc1ccc(CNCCCS(=O)(=O)N2CCC(Nc3nc(N)c(C(=O)c4c(F)cccc4F)s3)CC2)o1 [Example V123] | 5% |
| 80% | CN(CCCS(=O)(=O)N1CCC(Nc2nc(N)c(C(=O)c3c(F)cccc3F)s2)CC1)CC(O)CO (stereo not shown) [Example V124] | 9% |
| 87% | Nc1nc(NC2CCN(S(=O)(=O)CCCNCCSCCO)CC2)sc1C(=O)c1c(F)cccc1F [Example V125] | 5% |
| 84% | CC(CN(C)C)NCCCS(=O)(=O)N1CCC(Nc2nc(N)c(C(=O)c3c(F)cccc3F)s2)CC1 (stereo not shown) [Example V126] | 6% |
| 87% | CSCCCNCCCS(=O)(=O)N1CCC(Nc2nc(N)c(C(=O)c3c(F)cccc3F)s2)CC1 [Example V127] | 13% |
| 87% | CSCCNCCCS(=O)(=O)N1CCC(Nc2nc(N)c(C(=O)c3c(F)cccc3F)s2)CC1 [Example V128] | 25% |
| 88% | CCSCCNCCCS(=O)(=O)N1CCC(Nc2nc(N)c(C(=O)c3c(F)cccc3F)s2)CC1 [Example V129] | 49% |
| 75% | CCN(CCCS(=O)(=O)N1CCC(Nc2nc(N)c(C(=O)c3c(F)cccc3F)s2)CC1)CCOC [Example V130] | 36% |
| 82% | CC(C)OCCNCCCS(=O)(=O)N1CCC(Nc2nc(N)c(C(=O)c3c(F)cccc3F)s2)CC1 [Example V131] | 5% |
| 80% | CCOC(=O)CCNCCCS(=O)(=O)N1CCC(Nc2nc(N)c(C(=O)c3c(F)cccc3F)s2)CC1 [Example V132] | 20% |
| 71% | Nc1nc(NC2CCN(S(=O)(=O)CCCN3CCC(CO)CC3)CC2)sc1C(=O)c1c(F)cccc1F [Example V133] | 0% |

| inhibition at 0.05 µM (CDK2/Cyclin A) | Structure (SMILES) | inhibition at 0.175 µM (HCT-116 cell line) |
| --- | --- | --- |
| 80% | Nc1nc(NC2CCN(S(=O)(=O)CCCN3CCC(CCO)CC3)CC2)sc1C(=O)c1c(F)cccc1F [Example V134] | 8% |
| 78% | C=CCN(C)CCCS(=O)(=O)N1CCC(Nc2nc(N)c(C(=O)c3c(F)cccc3F)s2)CC1 [Example V135] | 82% |
| 76% | COC(=O)CN(C)CCCS(=O)(=O)N1CCC(Nc2nc(N)c(C(=O)c3c(F)cccc3F)s2)CC1 [Example V136] | 9% |
| 76% | C=C(C)CN(C)CCCS(=O)(=O)N1CCC(Nc2nc(N)c(C(=O)c3c(F)cccc3F)s2)CC1 [Example V137] | 78% |
| 76% | CN(CCCS(=O)(=O)N1CCC(Nc2nc(N)c(C(=O)c3c(F)cccc3F)s2)CC1)CC(N)=O [Example V138] | 0% |
| 79% | COC(=O)[C@@H]1CCCN1CCCS(=O)(=O)N1CCC(Nc2nc(N)c(C(=O)c3c(F)cccc3F)s2)CC1 [Example V139] | 0% |
| 93% | Nc1nc(NC2CCN(S(=O)(=O)CCCNc3cc(O)c4ccccc4n3)CC2)sc1C(=O)c1c(F)cccc1F [Example V140] | 0% |
| 82% | COC(=O)CCCNCCCS(=O)(=O)N1CCC(Nc2nc(N)c(C(=O)c3c(F)cccc3F)s2)CC1 [Example V141] | 22% |
| 80% | Nc1nc(NC2CCN(S(=O)(=O)CCCNc3ccc4cccc(O)c4n3)CC2)sc1C(=O)c1c(F)cccc1F [Example V142] | 0% |
| 90% | Nc1nc(NC2CCN(S(=O)(=O)CCCN3C[C@@H]4C[C@H]3CO4)CC2)sc1C(=O)c1c(F)cccc1F [Example V143] | 34% |
| 87% | Nc1nc(NC2CCN(S(=O)(=O)CCCNCC3(O)CCCCC3)CC2)sc1C(=O)c1c(F)cccc1F [Example V144] | 0% |
| 83% | Nc1nc(NC2CCN(S(=O)(=O)CCCNc3nccc4cccnc34)CC2)sc1C(=O)c1c(F)cccc1F [Example V145] | 0% |
| 82% | Nc1nc(NC2CCN(S(=O)(=O)CCCNCCCc3c[nH]cn3)CC2)sc1C(=O)c1c(F)cccc1F [Example V146] | 13% |
| 78% | CN(C)CCCS(=O)(=O)N1CCC(Nc2nc(N)c(C(=O)c3c(F)cccc3F)s2)CC1 [Example V147] | 23% |
| 83% | CN(CCO)CCCS(=O)(=O)N1CCC(Nc2nc(N)c(C(=O)c3c(F)cccc3F)s2)CC1 [Example V148] | 2% |
| 92% | Nc1cccc(CNCCCS(=O)(=O)N2CCC(Nc3nc(N)c(C(=O)c4c(F)cccc4F)s3)CC2)c1 [Example V149] | 0% |
| 87% | Nc1nc(NC2CCN(S(=O)(=O)CCCNCCc3ncn[nH]3)CC2)sc1C(=O)c1c(F)cccc1F [Example V150] | 18% |
| 79% | Nc1ncccc1CNCCCS(=O)(=O)N1CCC(Nc2nc(N)c(C(=O)c3c(F)cccc3F)s2)CC1 [Example V151] | 0% |
| 78% | Nc1nc(NC2CCN(S(=O)(=O)CCCN3CCN4CCCC4C3)CC2)sc1C(=O)c1c(F)cccc1F (stereo not shown) [Example V152] | 0% |
| 84% | Nc1nc(NC2CCN(S(=O)(=O)CCCNC3CCOCC3)CC2)sc1C(=O)c1c(F)cccc1F [Example V153] | 0% |
| 82% | CN(C)CCCCNCCCS(=O)(=O)N1CCC(Nc2nc(N)c(C(=O)c3c(F)cccc3F)s2)CC1 [Example V154] | 15% |
| 87% | Nc1nc(NC2CCN(S(=O)(=O)CCCN3Cc4ccccc4C3)CC2)sc1C(=O)c1c(F)cccc1F [Example V155] | 11% |
| 82% | Nc1nc(NC2CCN(S(=O)(=O)CCCN3CCNC(=O)CC3)CC2)sc1C(=O)c1c(F)cccc1F [Example V156] | 0% |
| 83% | Nc1nc(NC2CCN(S(=O)(=O)CCCN[C@H]3CCC(=O)NC3)CC2)sc1C(=O)c1c(F)cccc1F [Example V157] | 46% |
| 90% | Nc1nc(NC2CCN(S(=O)(=O)CCCNC3CCCCCCC3)CC2)sc1Cc1c(F)cccc1F [Example V158] | 23% |
| 88% | Nc1nc(NC2CCN(S(=O)(=O)CCCNC3CCCCCC3)CC2)sc1C(=O)c1c(F)cccc1F [Example V159] | 8% |
